Assays:
[1] = biological target: full-length MALT1 protein (Strep-MALT1(1-824)-His) (Homo sapiens (Human), UniProt Q9UDY8); assay: MALT1 Biochemical Protease Assay (Ac-LRSR-AMC substrate); details: 10 nM FL MALT1, 200 μM Ac-LRSR-AMC, 4 h at RT; read-out: MALT1_Biochemical activity (Ac-LRSR-amc) IC50
Outline: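 Full-length MALT1 pre-incubated with compounds (30 μM to 0.5 nM, 11 threefold steps) for 50 min at RT. After Ac-LRSR-AMC was added, the reaction ran 4 h at RT and AMC fluorescence was read. IC50 and Hill slope from curve fitting against no-enzyme and no-compound controls.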

[2] = tested on: IL6 secretion by OCI-LY3 ABC-DLBCL cells; assay: Human IL6 Mesoscale assay (OCI-LY3); type: cell-based; details: Homo sapiens, 24 h
Outline: (§1)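 Read-out: MSD electrochemiluminescence of IL6/IL10 in supernatants. Cells (100,000/well, no beta-mercaptoethanol) were exposed to compounds at 15 μM down to 58.6 nM, 1:2 dilutions, for 24 h at 37° C, 5% CO2. Normalised between DMSO (high) and RN486 (low) controls.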

[3] = tested on: IL10 secretion by OCI-LY3 ABC-DLBCL cells; assay: Human IL10 Mesoscale assay (OCI-LY3); type: cell-based; details: Homo sapiens, 24 h
Outline: as §1

Chain of full-length MALT1 protein (Strep-MALT1(1-824)-His) (Q9UDY8 whole entry): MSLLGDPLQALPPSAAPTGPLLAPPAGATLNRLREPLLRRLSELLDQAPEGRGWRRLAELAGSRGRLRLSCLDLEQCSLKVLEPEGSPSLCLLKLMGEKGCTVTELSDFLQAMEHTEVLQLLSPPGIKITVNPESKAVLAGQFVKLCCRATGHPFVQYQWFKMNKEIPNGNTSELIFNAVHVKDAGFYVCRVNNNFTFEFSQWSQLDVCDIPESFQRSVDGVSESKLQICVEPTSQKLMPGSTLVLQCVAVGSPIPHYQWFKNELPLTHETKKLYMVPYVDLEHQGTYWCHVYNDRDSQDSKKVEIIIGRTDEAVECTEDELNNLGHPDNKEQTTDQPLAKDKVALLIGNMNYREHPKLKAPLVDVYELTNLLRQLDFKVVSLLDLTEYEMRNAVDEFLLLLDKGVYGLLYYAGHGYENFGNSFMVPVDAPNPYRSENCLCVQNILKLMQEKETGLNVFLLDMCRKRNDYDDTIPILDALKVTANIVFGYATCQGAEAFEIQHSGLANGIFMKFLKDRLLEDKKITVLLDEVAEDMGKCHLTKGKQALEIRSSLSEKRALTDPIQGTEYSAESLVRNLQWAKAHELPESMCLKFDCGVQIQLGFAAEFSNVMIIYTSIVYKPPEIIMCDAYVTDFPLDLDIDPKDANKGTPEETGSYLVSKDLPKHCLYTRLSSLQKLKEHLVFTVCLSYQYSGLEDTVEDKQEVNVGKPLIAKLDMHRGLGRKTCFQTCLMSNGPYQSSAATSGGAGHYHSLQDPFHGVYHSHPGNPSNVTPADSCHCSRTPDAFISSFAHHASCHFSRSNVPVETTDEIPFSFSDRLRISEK

COc1cc(NC(=O)c2cnn(-c3cccc4ncccc34)c2C(F)(F)F)cnc1-n1nccn1 [Cpd 251, N-(5-methoxy-6-(2H-1,2,3-triazol-2-yl)pyridin-3-yl)-1-(quinolin-5-yl)-5-(trifluoromethyl)-1H-pyrazole-4-carboxamide]
IC50 [1]: 302 nM | IC50 [2]: 2190 nM | IC50 [3]: 2240 nM

O=C(Nc1cnc(-n2nccn2)c(Cl)c1)c1cnn(-c2cnc(C3CC3)c3sccc23)c1C(F)(F)F [Cpd 435, N-(5-chloro-6-(2H-1,2,3-triazol-2-yl)pyridin-3-yl)-1-(7-cyclopropylthieno[2,3-c]pyridin-4-yl)-5-(trifluoromethyl)-1H-pyrazole-4-carboxamide]
IC50 [1]: 170 nM | IC50 [2]: 79 nM | IC50 [3]: 81 nM

CCc1nc(-n2nccn2)c(Cl)cc1NC(=O)c1cnn(-c2cccc3nccn23)c1C(F)(F)F [Cpd 195, N-(5-chloro-2-ethyl-6-(2H-1,2,3-triazol-2-yl)pyridin-3-yl)-1-(imidazo[1,2-a]pyridin-5-yl)-5-(trifluoromethyl)-1H-pyrazole-4-carboxamide]
IC50 [1]: 324 nM | IC50 [2]: 107 nM | IC50 [3]: 71 nM

Cn1nc(-n2ncc(C(=O)Nc3cnc(-n4nccn4)c(C#N)c3)c2C(F)(F)F)c2ccccc21 [Cpd 266, N-(5-cyano-6-(2H-1,2,3-triazol-2-yl)pyridin-3-yl)-1-(1-methyl-1H-indazol-3-yl)-5-(trifluoromethyl)-1H-pyrazole-4-carboxamide]
IC50 [1]: 158 nM | IC50 [2]: 186 nM | IC50 [3]: 178 nM

CC(O)c1cc(-n2ncc(C(=O)Nc3cnc(-n4nccn4)c(Cl)c3)c2C(F)(F)F)c2ccccc2n1 (stereo not drawn) [Cpd 374, N-(5-chloro-6-(2H-1,2,3-triazol-2-yl)pyridin-3-yl)-1-(2-(1-hydroxyethyl)quinolin-4-yl)-5-(trifluoromethyl)-1H-pyrazole-4-carboxamide]
IC50 [1]: 87 nM | IC50 [2]: 72 nM | IC50 [3]: 40 nM

O=C(Nc1cnc(-n2nccn2)c(Cl)c1)c1cnn(-c2cnc(N3CC[C@H](O)C3)c3sccc23)c1C(F)(F)F [Cpd 431, (S)—N-(5-chloro-6-(2H-1,2,3-triazol-2-yl)pyridin-3-yl)-1-(7-(3-hydroxypyrrolidin-1-yl)thieno[2,3-c]pyridin-4-yl)-5-(trifluoromethyl)-1H-pyrazole-4-carboxamide]
IC50 [1]: 17 nM | IC50 [2]: 117 nM | IC50 [3]: 95 nM

O=C(Nc1ccnc(C2CC2)c1)c1cnn(-c2cccc3c(=O)[nH]ccc23)c1C(F)(F)F [Cpd 350, N-(2-cyclopropylpyridin-4-yl)-1-(1-oxo-1,2-dihydroisoquinolin-5-yl)-5-(trifluoromethyl)-1H-pyrazole-4-carboxamide]
IC50 [1]: 1260 nM | IC50 [2]: 204 nM | IC50 [3]: 182 nM

N#Cc1cc(NC(=O)c2cnn(-c3ncnc4ccccc34)c2C(F)(F)F)cnc1-n1nccn1 [Cpd 296, N-(5-cyano-6-(2H-1,2,3-triazol-2-yl)pyridin-3-yl)-1-(quinazolin-4-yl)-5-(trifluoromethyl)-1H-pyrazole-4-carboxamide]
IC50 [1]: 72 nM | IC50 [2]: 182 nM | IC50 [3]: 69 nM

Cc1cc2nccc(-n3ncc(C(=O)Nc4cnc(-n5nccn5)c(C#N)c4)c3C(F)(F)F)c2s1 [Cpd 232, N-(5-cyano-6-(2H-1,2,3-triazol-2-yl)pyridin-3-yl)-1-(2-methylthieno[3,2-b]pyridin-7-yl)-5-(trifluoromethyl)-1H-pyrazole-4-carboxamide]
IC50 [1]: 891 nM | IC50 [2]: 145 nM | IC50 [3]: 182 nM

NCc1cnn(-c2ncc(NC(=O)c3cnn(-c4cccc5ncccc45)c3C(F)(F)F)cc2Cl)n1 [Cpd 272, N-(6-(4-(aminomethyl)-2H-1,2,3-triazol-2-yl)-5-chloropyridin-3-yl)-1-(quinolin-5-yl)-5-(trifluoromethyl)-1H-pyrazole-4-carboxamide]
IC50 [1]: 145 nM | IC50 [2]: 126 nM | IC50 [3]: 87 nM

COCCOc1ncc(C(F)(F)F)cc1NC(=O)c1cnn(-c2cccc3c(=O)[nH]ccc23)c1C(F)(F)F [Cpd 357, N-(2-(2-methoxyethoxy)-5-(trifluoromethyl)pyridin-3-yl)-1-(1-oxo-1,2-dihydroisoquinolin-5-yl)-5-(trifluoromethyl)-1H-pyrazole-4-carboxamide]
IC50 [1]: 977 nM | IC50 [2]: 15 nM | IC50 [3]: 15 nM

Cc1cc(-n2nccn2)c(C#N)cc1NC(=O)c1cnn(-c2cccc3scnc23)c1C(F)(F)F [Cpd 298, 1-(benzo[d]thiazol-4-yl)-N-(5-cyano-2-methyl-4-(2H-1,2,3-triazol-2-yl)phenyl)-5-(trifluoromethyl)-1H-pyrazole-4-carboxamide]
IC50 [1]: 1350 nM | IC50 [2]: 50 nM | IC50 [3]: 25 nM

O=C(Nc1cnc(-n2nccn2)c(Cl)c1)c1cnn(-c2noc3ccccc23)c1C(F)(F)F [Cpd 284, 1-(benzo[d]isoxazol-3-yl)-N-(5-chloro-6-(2H-1,2,3-triazol-2-yl)pyridin-3-yl)-5-(trifluoromethyl)-1H-pyrazole-4-carboxamide]
IC50 [1]: 120 nM | IC50 [2]: 589 nM | IC50 [3]: 724 nM

O=C(Nc1ccncc1)c1cnn(-c2cccc3c(=O)[nH]ccc23)c1C(F)(F)F [Cpd 349, 1-(1-oxo-1,2-dihydroisoquinolin-5-yl)-N-(pyridin-4-yl)-5-(trifluoromethyl)-1H-pyrazole-4-carboxamide]
IC50 [1]: 13500 nM | IC50 [2]: 79 nM | IC50 [3]: 60 nM

Nc1nccc2c(-n3ncc(C(=O)Nc4cnc(-n5nccn5)c(Cl)c4)c3C(F)(F)F)cccc12 [Cpd 330, 1-(1-aminoisoquinolin-5-yl)-N-(5-chloro-6-(2H-1,2,3-triazol-2-yl)pyridin-3-yl)-5-(trifluoromethyl)-1H-pyrazole-4-carboxamide]
IC50 [1]: 646 nM | IC50 [2]: 21 nM | IC50 [3]: 25 nM

Cc1nc(-n2nccn2)c(Cl)cc1NC(=O)c1cnn(-c2cccc3scnc23)c1C(F)(F)F [Cpd 252, 1-(benzo[d]thiazol-4-yl)-N-(5-chloro-2-methyl-6-(2H-1,2,3-triazol-2-yl)pyridin-3-yl)-5-(trifluoromethyl)-1H-pyrazole-4-carboxamide]
IC50 [1]: 282 nM | IC50 [2]: 158 nM | IC50 [3]: 123 nM

Nc1nc2cccc(-n3ncc(C(=O)Nc4cnc(-n5nccn5)c(Cl)c4)c3C(F)(F)F)c2s1 [Cpd 278, 1-(2-aminobenzo[d]thiazol-7-yl)-N-(5-chloro-6-(2H-1,2,3-triazol-2-yl)pyridin-3-yl)-5-(trifluoromethyl)-1H-pyrazole-4-carboxamide]
IC50 [1]: 129 nM | IC50 [2]: 141 nM | IC50 [3]: 219 nM

O=C(Nc1cc(Cl)c(-n2nccn2)cc1F)c1cnn(-c2cccc3nnsc23)c1C(F)(F)F [Cpd 301, 1-(benzo[d][1,2,3]thiadiazol-7-yl)-N-(5-chloro-2-fluoro-4-(2H-1,2,3-triazol-2-yl)phenyl)-5-(trifluoromethyl)-1H-pyrazole-4-carboxamide]
IC50 [1]: 141 nM | IC50 [2]: 501 nM | IC50 [3]: 417 nM

CN(C)Cc1cnnn1-c1ncc(NC(=O)c2cnn(-c3cccc4ncccc34)c2C(F)(F)F)cc1Cl [Cpd 270, N-(5-chloro-6-(5-((dimethylamino)methyl)-1H-1,2,3-triazol-1-yl)pyridin-3-yl)-1-(quinolin-5-yl)-5-(trifluoromethyl)-1H-pyrazole-4-carboxamide]
IC50 [1]: 145 nM | IC50 [2]: 170 nM | IC50 [3]: 98 nM

N#Cc1cc(NC(=O)c2cnn(-c3ncnc4occc34)c2C(F)(F)F)cnc1-n1nccn1 [Cpd 292, N-(5-cyano-6-(2H-1,2,3-triazol-2-yl)pyridin-3-yl)-1-(furo[2,3-d]pyrimidin-4-yl)-5-(trifluoromethyl)-1H-pyrazole-4-carboxamide]
IC50 [1]: 79 nM | IC50 [2]: 151 nM | IC50 [3]: 115 nM

Cc1nc2cccc(-n3ncc(C(=O)Nc4cnc(-n5nccn5)c(C#N)c4)c3C(F)(F)F)c2o1 [Cpd 271, N-(5-cyano-6-(2H-1,2,3-triazol-2-yl)pyridin-3-yl)-1-(2-methylbenzo[d]oxazol-7-yl)-5-(trifluoromethyl)-1H-pyrazole-4-carboxamide]
IC50 [1]: 145 nM | IC50 [2]: 112 nM | IC50 [3]: 95 nM

Cc1cc(NC(=O)c2cnn(-c3cnc(N)c4ccccc34)c2C(F)(F)F)c(C)nc1-n1nccn1 [Cpd 334, 1-(1-aminoisoquinolin-4-yl)-N-(2,5-dimethyl-6-(2H-1,2,3-triazol-2-yl)pyridin-3-yl)-5-(trifluoromethyl)-1H-pyrazole-4-carboxamide]
IC50 [1]: 417 nM | IC50 [2]: 186 nM | IC50 [3]: 251 nM

O=C(Nc1ccnc(C(F)(F)F)c1)c1cnn(-c2cncc3sccc23)c1C(F)(F)F [Cpd 364, 1-(thieno[2,3-c]pyridin-4-yl)-5-(trifluoromethyl)-N-(2-(trifluoromethyl)pyridin-4-yl)-1H-pyrazole-4-carboxamide]
IC50 [1]: 98 nM | IC50 [2]: 28 nM | IC50 [3]: 31 nM

C[C@@H](O)c1ncc(-n2ncc(C(=O)Nc3cnc(-n4nccn4)c(Cl)c3)c2C(F)(F)F)c2ccccc12 (single isomer, unassigned) [Cpd 442, (*R)—N-(5-chloro-6-(2H-1,2,3-triazol-2-yl)pyridin-3-yl)-1-(1-(1-hydroxyethyl)isoquinolin-4-yl)-5-(trifluoromethyl)-1H-pyrazole-4-carboxamide]
IC50 [1]: 62 nM | IC50 [2]: 162 nM | IC50 [3]: 112 nM

From US10954214B2 (Janssen Pharmaceutica NV, priority 2016, dated 2021)
